Eleven sequences from patent publication US11505574B2, “Modulation of P53 for the treatment of cancer” (THE REGENTS OF THE UNIVERSITY OF CALIFORNIA, priority 2016, dated 2022) can be followed below.

For data set [1], the system named is RKO cells. As to the kind of experiment: RKO cell colony formation assay (oligonucleotides). Type of data set: cell-based. Particulars: 5 μM oligonucleotide for 24 hours; versus M3 control (FIG. 30). An excerpt: Another strategy is to use oligonucleotides to block the interaction between RBM38 and the 3′ untranslated region (UTR) of p53 in order to modulate p53 translation (FIG. 26). To this end, a region of the p53 3′ UTR where RBM38 interacts (FIG. 27) was identified (SEQ ID NO:15) and several oligonucleotides having complementarity to this sequence (e.g., SEQ ID NOS:16-21) were designed.

Data set [2] relates to p53. Briefly: Western blot for p53 in MCF7 cells treated with oligonucleotides. It is filed as cell-based, human. Particulars: MCF7 cells; oligonucleotide 50 nM; 24 hours (FIG. 2).
Data set [3] has as its system MCF7 cells. As to the kind of experiment: MCF7 cell colony formation assay (peptides). Particulars: for MCF7 cell colony formation: 375 nM peptide with 7.5 μg PEP1 (20:1) (FIG. 1B); for inhibition of colony formation by low-dose doxorubicin: MCF7 cells, 375 nM peptide with 7.5 μg PEP1 (20:1) plus 3.125 ng/mL doxorubicin (FIG. 1D); for colony formation in MCF7 cells: complexes of peptide and PEP1 (FIG. 18). It is filed as cell-based, human. How it is done: In order to test the effect of the RBM38 and eIF4E peptides on cancer cell colony formation, MCF7 cells were seeded in 6-well plates at a density of 1×10^3 cells per well. The following day, cells were treated with peptides. In order to form stable complexes with PEP1, 100 μl of serum-free DMEM was added to individual Eppendorf tubes. Control (SEQ ID NO:11), RBM38, and eIF4E peptides were added at a concentration of 375 nM and then 7.5 μg of PEP1 was added to each peptide (20:1). The complexes were incubated for 20 minutes at room temperature and then added dropwise to cells. Cell media was changed every three days until colonies were visible. The cells were fixed and then stained with crystal violet.
In order to test the effect of a combination treatment comprising peptides of the present invention and a chemotherapeutic agent on cancer cell colony formation, MCF7 cells were seeded in 6-well plates at a density of 1×10^3 cells per well. The following day, cells were treated with peptides. In order to form stable complexes with PEP1, 100 μL of serum-free DMEM was added to individual Eppendorf tubes. Control, RBM38, eIF4E, and peptide-8 peptides were added at a concentration of 375 nM and then 7.5 μg of PEP1 was added to each peptide (20:1). The complexes were incubated for 20 minutes at room temperature and then added dropwise to cells. 20 minutes after addition of peptide complexes, 3.125 ng/mL doxorubicin was added to the cells. Cell media was changed every three days until colonies were visible. The cells were fixed and then stained with crystal violet.
For the experiments shown in FIG. 34C, MCF7 cells were seeded on a 6-well plate at a seed density of 1×10^3 cells per well. The following day the cells were treated with 5 μM Pen-Ctrl or 5 μM Pen-Pep23. The following day, 6.25 ng/mL doxorubicin was added to the cells for 48 hours. Subsequently, the cell media was changed every 3 days until colonies were visible. The cells were fixed and stained with crystal violet.

Data set [4] has as its system p53. As to the kind of experiment: Western blot for p53 and downstream targets in MCF7 cells treated with peptides. Type of data set: cell-based, human. Particulars: for p53 expression (Western blot) / protein expression of p53 and downstream targets p21 and MDM2 (Western blot) / p53 and p21 expression after low-dose doxorubicin treatment (Western blot) / doxorubicin-mediated p53 and p21 upregulation (Western blot) / expression of p53 and downstream targets with low-dose doxorubicin (Western blot) / expression of p53 and downstream targets p21 and MDM2 (Western blot): MCF7 cells; for p53 expression (Western blot): 300 nM peptide with 6 μM PEP1, 24 hours (FIG. 31B); for protein expression of p53 and downstream targets p21 and MDM2 (Western blot): 300 nM peptide with 6 μg PEP1 (20:1 PEP1 to peptide), 18 hours (FIG. 1A); for p53 and p21 expression after low-dose doxorubicin treatment (Western blot): 375 nM peptide with 7.5 μM PEP1, 6.25 ng/mL doxorubicin 18 hours (FIG. 34H); for doxorubicin-mediated p53 and p21 upregulation (Western blot): 375 nM peptide with (20:1) plus 6.25 ng/mL doxorubicin, 18 hours (FIG. 1C); for expression of p53 and downstream targets with low-dose doxorubicin (Western blot): complexes of CPPs and peptide plus doxorubicin 6.25 ng/mL (FIG. 19B); for expression of p53 and downstream targets p21 and MDM2 (Western blot): complexes with PEP1 (FIG. 13B). (A western blot detects proteins with antibodies after separation by electrophoresis.)

The subject of data set [5] is U20S. As to the kind of experiment: U20S cell colony formation assay (FIG. 18). It is filed as cell-based, human. Particulars: complexes of peptide and PEP1 (FIG. 18).
Data set [6] relates to MIA-PaCa-2 pancreatic cancer cells. As to the kind of experiment: MIA-PaCa-2 cell colony formation assay (peptides). It is filed as cell-based, human. Particulars: complexes of peptide and PEP1 (FIG. 18). An excerpt: […] […] After colonies formed they were fixed (i.e., using 7:1 MeOH:glacial acetic acid) and stained with crystal violet.
Data set [7] relates to p53. Briefly: Western blot for p53 and downstream targets in RKO cells treated with peptides. Type of data set: cell-based, human. Particulars: RKO cells; for p53 expression (Western blot): 300 nM peptide with 6 μM PEP1, 24 hours (FIG. 31A); for p53 and p21 expression after low-dose doxorubicin treatment (Western blot) / p53 protein expression compared to Pep8 (Western blot): 375 nM peptide with 7.5 μM PEP1; for p53 and p21 expression after low-dose doxorubicin treatment (Western blot): 6.25 ng/mL doxorubicin 18 hours (FIG. 34G); for expression of p53 and downstream targets with low-dose doxorubicin (Western blot): complexes of CPPs and peptide plus doxorubicin 6.25 ng/mL (FIG. 19A); for expression of p53 (Western blot): peptide complexed with PEP1 (FIG. 13A); for p53 protein expression compared to Pep8 (Western blot): 18 hours (FIG. 37A).

The subject of data set [8] is tumor cell colony formation. Briefly: Tumor cell colony formation assay, cell line not stated (FIGS. 13C, 20D). It is filed as cell-based. Particulars: complexes with PEP1 (FIG. 13C).

“Also recorded” adds a separate entry of the source.

“AAAAAAAAAAAAAAAAAA (listed as DNA, chemistry not given here) [15A]”: in data set [1], the “RKO tumor cell colony formation” value was “inhibited RKO tumor cell colony formation after 24 hours more than the M3 control oligonucleotide did”. The “level of p53 (Western blot)” value in data set [2] is listed as “level of p53 was increased”.
For “AAAAAAGAAAAAAAA (chemistry not given here) [14A/G]”, in that order: “inhibited RKO tumor cell colony formation after 24 hours more than the M3 control oligonucleotide did” and “level of p53 was increased”.
Regarding “AAAGAAAAAAGAAAA (listed as DNA, chemistry not given here) [18T-AS-15]”, the “level of p53 (Western blot)” value in data set [2] is given as “level of p53 was increased”.
Still for that read-out and setting: as for “AAAGAAAAAAGAAAAAAAA (listed as DNA, chemistry not given here) [18T-AS-19]”, the entry is “level of p53 was increased”; as for “AAAGAAAAAAGAAAAAAAAAAAAAAAAAA (listed as DNA, chemistry not given here) [18T-AS-29]”, “level of p53 was increased”; as for “AAAGAAAAAAGAAAAAAAAAAAAAAAAAAGAAAAAGAA (listed as DNA, chemistry not given here) [18T-AS]”, “level of p53 was increased”.
As for IGYQSHADTATKSGSTTKNRFVV [eIF4E], in data set [3], the “MCF7 cell colony formation” value is given as “able to inhibit MCF7 cell colony formation; also recorded: able to suppress colony formation of MCF7 breast cancer cells; also recorded: decreased colony formation”, the “inhibition of colony formation by low-dose doxorubicin” value (from here on “inhibition of colony formation”) is given as “enhanced the inhibition of colony formation by low-dose doxorubicin; also recorded: led to decreased colony formation” and the “colony formation in MCF7 cells” value is recorded as “inhibited colony formation”. Besides, in data set [4], the “p53 expression (Western blot)” value is “able to increase p53 expression”; the “protein expression of p53 and downstream targets p21 and MDM2 (Western blot)” value is “increased protein expression of p53 and the downstream targets p21 and mouse double minute 2 homolog (MDM2); also recorded: increasing p53 protein levels; also recorded: induced p53 and downstream targets p21 and MDM2”; the “p53 and p21 expression after low-dose doxorubicin treatment (Western blot)” value (shortened to “p53 and p21 expression”) is “further increased p53 and p21 expression”; the “doxorubicin-mediated p53 and p21 upregulation (Western blot)” value is “enhanced the effect of doxorubicin-mediated p53 and p21 upregulation; also recorded: able to enhance the induction of p53 and p21”. Also, in data set [4], the “expression of p53 and downstream targets with low-dose doxorubicin (Western blot)” value is “increased the expression of p53 and downstream targets”; the “expression of p53 and downstream targets p21 and MDM2 (Western blot)” value is “expression of p53 and downstream targets p21 and MDM2 was increased”. Also, the “colony formation in U20S cells” value in data set [5] was “inhibited colony formation”. In data set [6], the “colony formation in MIA-PaCa-2 pancreatic cancer cells” value is “inhibited colony formation”. In data set [7], the “p53 expression (Western blot)” value was “able to increase p53 expression”; the “p53 and p21 expression” value is “further increased p53 and p21 expression”; the “expression of p53 and downstream targets with low-dose doxorubicin (Western blot)” value was “increased the expression of p53 and downstream targets”; the “expression of p53 (Western blot)” value is given as “expression of p53 was increased relative to controls”. The “tumor cell colony formation” value in data set [8] is recorded as “successful at inhibiting tumor cell colony formation”.
For the sequence “QYPPATYDQYPYAASPATAASFVGYSYPAAVPQALSAAAP [RBM38]”, in data set [3], the “MCF7 cell colony formation” value is “able to inhibit MCF7 cell colony formation; also recorded: able to suppress colony formation of MCF7 breast cancer cells; also recorded: decreased colony formation” and the “inhibition of colony formation” value was “enhanced the inhibition of colony formation by low-dose doxorubicin”. In data set [4], the “p53 expression (Western blot)” value was “able to increase p53 expression”; the “protein expression of p53 and downstream targets p21 and MDM2 (Western blot)” value was “increased protein expression of p53 and the downstream targets p21 and mouse double minute 2 homolog (MDM2); also recorded: increasing p53 protein levels; also recorded: induced p53 and downstream targets p21 and MDM2”; the “p53 and p21 expression” value was “further increased p53 and p21 expression”; the “doxorubicin-mediated p53 and p21 upregulation (Western blot)” value was “enhanced the effect of doxorubicin-mediated p53 and p21 upregulation; also recorded: able to enhance the induction of p53 and p21”. In addition, in data set [4], the “expression of p53 and downstream targets with low-dose doxorubicin (Western blot)” value was “increased the expression of p53 and downstream targets”; the “expression of p53 and downstream targets p21 and MDM2 (Western blot)” value is “expression of p53 and downstream targets p21 and MDM2 was increased”. For the same sequence, in data set [7], the “p53 expression (Western blot)” value is reported as “able to increase p53 expression”; the “p53 and p21 expression” value is “further increased p53 and p21 expression”; the “expression of p53 and downstream targets with low-dose doxorubicin (Western blot)” value is “increased the expression of p53 and downstream targets”; the “expression of p53 (Western blot)” value was “expression of p53 was increased relative to controls”. For the same sequence, the “tumor cell colony formation” value in data set [8] is given as “successful at inhibiting tumor cell colony formation”.
Take YPYAAKPA [Pep8-SK, Pep8 mutant]: the “p53 protein expression compared to Pep8 (Western blot)” value in data set [7] is “stronger ability to induce p53 protein expression compared to Pep8”.
Same read-out and setting: next, YPYAARPA [Pep8-SR, Pep8 mutant]: “stronger ability to induce p53 protein expression compared to Pep8”.
In the case of YPYAASPA [peptide-8], in data set [3], the “inhibition of colony formation” value is listed as “enhanced the inhibition of colony formation by low-dose doxorubicin; also recorded: led to decreased colony formation” and the “colony formation in MCF7 cells” value is reported as “inhibited colony formation”. In addition, in data set [4] (MCF7 cells 375 nM, 50 nM or 150 nM, RKO cells 150 nM (FIG. 16)), the “induction of p53 (Western blot)” value was “stronger induction of p53 than the longer RBM38 and eIF4E peptides; also recorded: increases p53 expression”. In data set [4], the “p53 and p21 expression” value was “further increased p53 and p21 expression”; the “doxorubicin-mediated p53 and p21 upregulation (Western blot)” value was “enhanced the effect of doxorubicin-mediated p53 and p21 upregulation; also recorded: able to enhance the induction of p53 and p21”; the “expression of p53 and downstream targets with low-dose doxorubicin (Western blot)” value is “increased the expression of p53 and downstream targets”. Also, the “colony formation in U20S cells” value in data set [5] is “inhibited colony formation”. Besides, in data set [6], the “colony formation in MIA-PaCa-2 pancreatic cancer cells” value is “inhibited colony formation”. The “p53 protein levels (Western blot)” value in data set [7] (50 nM peptide with 1 μM PEP1, 18 hours (FIG. 32A)) was “could induce p53 protein levels”. In data set [7], the “p53 and p21 expression” value was “further increased p53 and p21 expression”; the “expression of p53 and downstream targets with low-dose doxorubicin (Western blot)” value is “increased the expression of p53 and downstream targets”.
